From patent US20020048549A1, “Radioactive transition metal nitride heterocomplex” (priority 1996, published 2002)

Legend:
serotonin receptor = assay: Regional brain biodistribution of 99mTcN-DESI (Group A vs Group B with unlabeled desipramine); type: in vivo, SD rats
Experimental: The rats were divided into two groups, group A and group B. Into each rat in group A was injected 20 μCi of the ^99mTcN-DESI. Into each rat in group B were injected 20 μCi of the ^99mTcN-DESI and 1.0 mg/kg of unlabeled desipramine at the same time.
SD rats weighing about 250 g were put under intraperitoneal anesthesia with a mixture of xylazine (18 mg/kg) and ketamine (15 mg/kg) and given an injection in the jugular vein. Then, the organs (brain, heart, lung, liver, spleen, kidney, muscle, adrenal, and submaxillary gland) were excised from the rats at different intervals of time, washed and then weighed. In addition, blood samples were collected and then weighed. The data on the biodistribution are expressed as the mean±significant difference of the percentage of radioactivity level per gram of the organ weight based on the dose of radioactivity, (% dose/g). The measurement was carried out using groups of 3 rats each.

[1] = Retention on Sep-Pak C18 reversed phase column (lipophilicity); type: physicochemical
Source text: Cation exchange resin: Sep-Pak CM (COONa), illpore, anion exchange resin: Sep-Pak QMA (CONH(CH2)3N(CH3)3^+Cl), Millpore, reversed phase column: Sep-Pak C18, Millpore. The complex was retained in an amount of about 95% in the cation exchange resin, about 60% in the anion exchange resin, or 99.5% in the reversed phase column.

[2] = Group A (complex alone), 30 min
[3] = Group A (complex alone), 60 min
[4] = Group B (with 1.0 mg/kg unlabeled desipramine), 5 min
[5] = Group B (with 1.0 mg/kg unlabeled desipramine), 30 min
[6] = Group B (with 1.0 mg/kg unlabeled desipramine), 60 min

Which Cerebellum % dose/g (serotonin receptor; Group A (complex alone), 5 min) does the source give for `COCCC[P+]1(CCCOC)CCN(CCOC)CC[P+](CCCOC)(CCCOC)[99Tc-2]12(#[N])[NH]C(C(=O)N(C)CCCN1c3ccccc3CCc3ccccc31)C[S]2` (centres unmarked) [^99mTcN-DESI] here?
Its Cerebellum % dose/g is 0.064 ± 0.005 % dose/g.

What about the Cortex % dose/g (serotonin receptor; Group A (complex alone), 5 min) of the same compound?
Its Cortex % dose/g is 0.029 ± 0.004 % dose/g.

What about the Hypothalamus % dose/g (serotonin receptor; Group A (complex alone), 5 min) of the same compound?
Its Hypothalamus % dose/g is 0.325 ± 0.058 % dose/g.

What about the Medulla % dose/g (serotonin receptor; Group A (complex alone), 5 min) of the same compound?
Its Medulla % dose/g is 0.057 ± 0.004 % dose/g.

What about the Striatum % dose/g (serotonin receptor; Group A (complex alone), 5 min) of the same compound?
The Striatum % dose/g was 0.076 ± 0.025 % dose/g.

What about the Cerebellum % dose/g (serotonin receptor; [2]) of the same compound?
The Cerebellum % dose/g was 0.039 ± 0.015 % dose/g.

What about the Cortex % dose/g (serotonin receptor; [2]) of the same compound?
Its Cortex % dose/g is 0.021 ± 0.002 % dose/g.

And the Hypothalamus % dose/g (serotonin receptor; [2])?
The Hypothalamus % dose/g was 0.408 ± 0.085 % dose/g.

And the Medulla % dose/g (serotonin receptor; [2])?
The Medulla % dose/g was 0.046 ± 0.003 % dose/g.

And the Striatum % dose/g (serotonin receptor; [2])?
Its Striatum % dose/g is 0.054 ± 0.017 % dose/g.

And the Cerebellum % dose/g (serotonin receptor; [3])?
The Cerebellum % dose/g was 0.028 ± 0.012 % dose/g.

What about the Cortex % dose/g (serotonin receptor; [3]) of the same compound?
The Cortex % dose/g was 0.021 ± 0.002 % dose/g.

And the Hypothalamus % dose/g (serotonin receptor; [3])?
Its Hypothalamus % dose/g is 0.364 ± 0.069 % dose/g.

What about the Medulla % dose/g (serotonin receptor; [3]) of the same compound?
The Medulla % dose/g was 0.029 ± 0.006 % dose/g.

And the Striatum % dose/g (serotonin receptor; [3])?
The Striatum % dose/g was 0.07 ± 0.019 % dose/g.

What about the Cerebellum % dose/g (serotonin receptor; [4]) of the same compound?
Its Cerebellum % dose/g is 0.048 ± 0.008 % dose/g.

What about the Cortex % dose/g (serotonin receptor; [4]) of the same compound?
Its Cortex % dose/g is 0.014 ± 0.004 % dose/g.

What about the Hypottalamus % dose/g (serotonin receptor; [4]) of the same compound?
The Hypottalamus % dose/g was 0.125 ± 0.029 % dose/g.

And the Medulla % dose/g (serotonin receptor; [4])?
Its Medulla % dose/g is 0.038 ± 0.001 % dose/g.

What about the Striatum % dose/g (serotonin receptor; [4]) of the same compound?
The Striatum % dose/g was 0.053 ± 0.001 % dose/g.

What about the Cerebellum % dose/g (serotonin receptor; [5]) of the same compound?
The Cerebellum % dose/g was 0.035 ± 0.007 % dose/g.

And the Cortex % dose/g (serotonin receptor; [5])?
The Cortex % dose/g was 0.009 ± 0.002 % dose/g.

What about the Hypottalamus % dose/g (serotonin receptor; [5]) of the same compound?
Its Hypottalamus % dose/g is 0.162 ± 0.106 % dose/g.

And the Medulla % dose/g (serotonin receptor; [5])?
The Medulla % dose/g was 0.027 ± 0.013 % dose/g.

What about the Striatum % dose/g (serotonin receptor; [5]) of the same compound?
The Striatum % dose/g was 0.023 ± 0.003 % dose/g.

What about the Cerebellum % dose/g (serotonin receptor; [6]) of the same compound?
Its Cerebellum % dose/g is 0.031 ± 0.011 % dose/g.

What about the Cortex % dose/g (serotonin receptor; [6]) of the same compound?
The Cortex % dose/g was 0.006 ± 0.000 % dose/g.

And the Hypottalamus % dose/g (serotonin receptor; [6])?
The Hypottalamus % dose/g was 0.152 ± 0.033 % dose/g.

What about the Medulla % dose/g (serotonin receptor; [6]) of the same compound?
Its Medulla % dose/g is 0.016 ± 0.002 % dose/g.

And the Striatum % dose/g (serotonin receptor; [6])?
The Striatum % dose/g was 0.035 ± 0.011 % dose/g.

What about the accumulation in cortex (serotonin receptor; group A, no unlabeled desipramine) of the same compound?
The accumulation in cortex was “specifically accumulated”.

What about the accumulation in cortex (serotonin receptor; group B, unlabeled desipramine administered) of the same compound?
The accumulation in cortex was “very small amount”.

What about the “specificity for serotonin receptor” value (serotonin receptor; suggested from group A vs group B cortex accumulation) of the same compound?
The value was “retained specificity for serotonin receptor”.

What about the “amount retained in the reversed phase column” value [1] of the same compound?
Its value is 99.5%.

What about the “lipophilicity suggested by retention in reversed phase column” value [1] of the same compound?
Its value is “high lipophilic”.
